Test results published in patent US20080108645A1, “Dihydrotetrabenazines And Pharmaceutical Compositions Containing Them” (CAMBRIDGE LABORATORIES, (IRELAND), LTD., priority 2004, published 2008).

Key:
[1] = molecular target: T1, VMAT1 (Rattus norvegicus, UniProt Q01818); test: VMAT1 functional assay: [3H] dopamine uptake, rat adrenal chromaffin cell vesicles in presence of 10 μM tetrabenazine; assay type: biochemical; details: for IC50: in the presence of 10 μM Tetrabenazine, read-out: IC50, inhibition of [3H] dopamine uptake
T1 construct: The vesicular fraction was isolated in an identical fashion to that described for the brain preparation; from tissue; host or cells: SD rat adrenal medulla chromaffin cells, vesicular fraction
T1 sequence (Q01818 1-521): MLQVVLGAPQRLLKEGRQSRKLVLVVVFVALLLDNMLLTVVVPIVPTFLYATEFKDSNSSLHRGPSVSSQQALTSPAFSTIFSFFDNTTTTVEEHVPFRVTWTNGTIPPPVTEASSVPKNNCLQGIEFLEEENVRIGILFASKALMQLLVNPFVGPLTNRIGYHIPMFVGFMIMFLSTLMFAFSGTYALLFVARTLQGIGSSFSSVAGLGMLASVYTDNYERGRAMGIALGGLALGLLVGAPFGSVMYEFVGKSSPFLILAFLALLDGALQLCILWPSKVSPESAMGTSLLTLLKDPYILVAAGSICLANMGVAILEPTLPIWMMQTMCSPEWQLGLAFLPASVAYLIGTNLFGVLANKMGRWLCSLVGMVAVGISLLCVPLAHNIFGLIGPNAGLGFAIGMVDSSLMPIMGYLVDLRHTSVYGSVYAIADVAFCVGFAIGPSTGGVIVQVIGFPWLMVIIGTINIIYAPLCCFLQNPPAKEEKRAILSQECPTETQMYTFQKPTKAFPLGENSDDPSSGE
Protocol: Thus, adrenal glands were dissected in ice cold PBS, the capsule and cortex of the glands removed and the remaining medullae were minced. After multiple washes with PBS, the tissue was incubated with Ca2+-free collagenase IA solution (250 U/ml) for 30 minutes at 30° C. with gentle stirring. The digested tissue was rinsed three times and the dissociated cells were centrifuged at 3000 rpm to form a pellet, which was resuspended in PBS. The vesicular fraction was isolated in an identical fashion to that described for the brain preparation.
100 μl (approx. 2.5 μg protein) of synaptic vesicles were preincubated with increasing concentrations of test compound (prepared as previously described for binding assay) for 30 minutes (concentration range 10^−9 M-10^−4 M). The assay was performed for 3 minutes at 30° C. in the assay buffer (25 mM HEPES, 100 mM potassium tartrate, 1.7 mM ascorbic acid, 0.05 mM EGTA, 0.1 mM EDTA, 2 mM ATP-Mg^2+, pH 7.5), in the presence of [^3H] dopamine (30 nM final concentration). [^3H] dopamine uptake was measured in the presence of 10 μM tetrabenazine (selectively blocks VMAT2 at this concentration). Non-specific uptake was determined by measuring vesicular [^3H] dopamine uptake at 4° C. The reaction was then terminated by addition of ice-cold buffer assay buffer pH 7.5, containing 2 mM MgSO4 instead of 2 mM ATP-Mg^2+, and rapid filtration achieved through Whatman filters soaked in 0.5% polyethyleneimine. The filters were washed three times with cold buffer using a Brandel Harvester and the radioactivity trapped on the filters was counted using a liquid scintillation counter.

[2] = molecular target: T2, Dopamine D1 Receptor (Homo sapiens, UniProt P21728); test: Dopamine D1 receptor radioligand binding; details: 10 μM; 1.4 nM [3H] SCH-23390
T2 construct: expressed in transfected cells; host or cells: CHO cells
Protocol: (§1) (a) Adrenergic α2A Receptor: • Reference: S. Uhlen et al. J. Pharmacol. Exp. Ther., 271:1558-1565 (1994) • Source: Human recombinant insect Sf9 cells • Ligand: 1 nM [^3H] […] J. Pharmacol., 99:803-809, (1990) • Source: Wistar rat cerebral cortex • Ligand: 2 nM [3H]

[3] = molecular target: T3, Dopamine D2L Receptor (Homo sapiens, UniProt P14416); test: Dopamine D2L receptor radioligand binding; details: 10 μM; 0.16 nM [3H] Spiperone
T3 construct: expressed in transfected cells; host or cells: CHO cells
Protocol: as §1

[4] = test system: Imidazoline I2 (Central) Receptor; test: Imidazoline I2 (central) receptor radioligand binding; parameters: species or system Wistar rat; details: 10 μM; 2 nM [3H] Idazoxan
Protocol: as §1

[5] = molecular target: T4, Sigma σ1 Receptor (Homo sapiens, UniProt Q99720); test: Sigma σ1 receptor radioligand binding; details: 10 μM; 8 nM [3H] Haloperidol
T4 construct: Source: Human jurkat cells; endogenous in cells; host or cells: Jurkat cells
Protocol: as §1

[6] = molecular target: T5, Monoamine Oxidase MAO-A (Homo sapiens, UniProt P21397); test: Monoamine Oxidase MAO-A inhibition; assay type: biochemical; details: for inhibition at 10 µM: read-out: Percentage Inhibition of Enzyme Activity, MAO-A
T5 sequence (P21397 1-527): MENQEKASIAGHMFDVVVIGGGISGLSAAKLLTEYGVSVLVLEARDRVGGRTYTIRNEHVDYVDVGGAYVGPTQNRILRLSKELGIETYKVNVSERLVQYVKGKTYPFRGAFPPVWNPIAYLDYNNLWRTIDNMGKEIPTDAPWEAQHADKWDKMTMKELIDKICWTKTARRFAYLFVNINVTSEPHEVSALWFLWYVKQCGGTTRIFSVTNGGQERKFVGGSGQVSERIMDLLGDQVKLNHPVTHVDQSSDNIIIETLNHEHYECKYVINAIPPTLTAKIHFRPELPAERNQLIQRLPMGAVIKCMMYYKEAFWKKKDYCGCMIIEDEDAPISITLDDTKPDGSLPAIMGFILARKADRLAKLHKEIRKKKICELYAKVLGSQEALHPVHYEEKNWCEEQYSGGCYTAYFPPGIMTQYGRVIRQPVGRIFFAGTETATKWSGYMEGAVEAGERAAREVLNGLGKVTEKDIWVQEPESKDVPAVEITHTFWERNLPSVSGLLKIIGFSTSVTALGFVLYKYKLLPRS
Protocol: Isomers B and C were tested for their ability to inhibit enzymes involved in the processing of monoamines in the CNS, namely Catechol O-Methyl Transferase (COMT), Monoamine Oxidase A and Monoamine Oxidase B. The assay methods used are described below and the results are set out in Table 7. (a) Catechol O-Methyl Transferase (COMT) Inhibition • Source: […] None • Incubation time: 60 minutes @ 37° C. • Incubation buffer: 100 mM potassium phosphate, 10 mM MgCl2, 3 mM DTT containing 12 units/ml adenosine deaminase, pH 7.4 • Quantitation method: […]

[7] = test system: Human HEK-293 cells; test: Cellular assay: inhibition of [3H] serotonin uptake by human embryonic kidney cells; assay type: cell-based; details: for inhibition at 10 µM: Homo sapiens, HEK293
Protocol: The ability of isomers B and C to inhibit uptake of serotonin (5-hydroxytryptamine) by human embryonic kidney cells was measured using the following assay conditions: […]

[8] = in vitro; details: human, Caco-2, pH 7.4
Description: The assay relies on the ability of Caco-2 cells to differentiate into enterocytes when cultured on a microporous filter for a period of approximately 21 days. During the culture period, the Caco-2 cells undergo spontaneous morphological and biochemical changes, which produce a polarized monolayer with a well-defined brush border on the apical surface, as well as tight cellular junctions. Therefore, these cells may be used as an in vitro model for the analysis of drug permeability.
Absorption across the Caco-2 monolayer can be measured in two directions: apical-to-basolateral or basolateral-to-apical, by adding the compound to the apical or the basolateral chamber, respectively. At various time-points, samples are collected from the receiver-chamber for analysis for the rate of absorption as measured by the apparent permeability coefficient (Papp) across the monolayer.
The Papp value reflects a combination of the test article permeability through both transcellular (through cell membranes) and the paracellular (across the tight junctions between the cells) pathways. The relative contribution of these pathways depends upon the pKa, partition coefficient (log D), molecular radius, and charge of the test article at a given pH. Papp values can then be used to rank-order compounds for their permeability through Caco-2 monolayers.
Absorption was determined at pH 7.4 across cell monolayers in the apical-to-basolateral direction. Caco-2 cells used to estimate Papp values were grown for 26 days on Transwell inserts in 12-well plates. Monolayer integrity was verified before and after the absorption assay by the methods of transepithelial electrical resistance (Ohm-cm^2) and Lucifer Yellow.
On the day of the assay, the reference standards were diluted in Hank's balanced salt solution (HBSS), pH 7.4 to a final concentration of 50 μM. […] Dihydrotetrabenazine isomer samples were prepared at a concentration of 50 mM in DMSO. Each stock solution was further diluted in HBSS buffer (pH 7.4) to a final working concentration of 50 μM
The Caco-2 cell suspensions were prepared as follows. […] Once the cell density and viability were determined, Caco-2 cells were diluted in culture medium to a final working concentration of 2.0×10^5 cells/ml. The Caco-2 culture medium contained Dulbecco's Modified Eagle Medium, 10% fetal bovine serum, 100 μM non-essential amino acids, 100 U/ml penicillin and 100 μg/ml streptomycin.
Costar polycarbonate membranes (0.4 μm pore size) were pre-equilibrated with Caco-2 culture medium for 1 hour in a 37° C. water-jacketed incubator with 5% CO2. The content of the apical chamber was removed and replaced with 500 μl of Caco-2 cell suspension (200 000 cells/ml). Cells were further maintained in culture for 26 days in a 37° C. water-jacketed incubator with 5% CO2.
Prior to the assay, all monolayers were washed twice with HBSS and their transepithelial electrical resistance (TEER) was measured with a Millicell-ERS meter. TEER values obtained in the absence of cells were subtracted as background signal. Only monolayer with TEER values over 150 Ohm-cm^2 were used for the absorption assay experiment.
All absorption experiments were conducted in triplicate at pH 7.4. The rate of absorption of each reference standard and dihydrotetrabenazine test article was assessed in the apical-to-basolateral direction. Aliquots (100 μl) of each working solution (reference standards and test articles at 50 μM) were set aside at the beginning of the assay for the determination of the initial concentration (Co).
Absorption experiments were initiated by replacing the content of the donor chamber with 500 μl of Hanks Balanced Salt Solution containing test articles or reference compounds. Cells were returned to the CO2 incubator for the absorption assay. Samples of 100 μl were collected from the receiver and donor chambers after 1 hour and were used to determine the percentage of recovery.

T2 sequence (P21728 whole entry): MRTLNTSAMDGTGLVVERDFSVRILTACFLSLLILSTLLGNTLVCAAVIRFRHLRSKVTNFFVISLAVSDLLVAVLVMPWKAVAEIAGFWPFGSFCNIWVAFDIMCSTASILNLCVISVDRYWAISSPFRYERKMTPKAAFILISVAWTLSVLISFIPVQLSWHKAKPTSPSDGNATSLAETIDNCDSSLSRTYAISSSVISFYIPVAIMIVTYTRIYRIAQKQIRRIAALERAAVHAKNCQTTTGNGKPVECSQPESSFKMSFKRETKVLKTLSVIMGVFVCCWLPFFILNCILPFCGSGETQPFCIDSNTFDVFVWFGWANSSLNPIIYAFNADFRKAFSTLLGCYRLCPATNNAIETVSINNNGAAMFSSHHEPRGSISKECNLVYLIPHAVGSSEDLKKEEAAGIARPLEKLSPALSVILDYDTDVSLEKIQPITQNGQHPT
T4 sequence (Q99720 whole entry): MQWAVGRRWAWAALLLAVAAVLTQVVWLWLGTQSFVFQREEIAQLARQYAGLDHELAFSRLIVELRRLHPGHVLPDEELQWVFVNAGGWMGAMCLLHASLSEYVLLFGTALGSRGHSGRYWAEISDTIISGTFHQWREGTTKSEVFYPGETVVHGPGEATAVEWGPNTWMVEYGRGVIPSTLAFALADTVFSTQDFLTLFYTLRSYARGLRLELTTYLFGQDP
T3 sequence (P14416 whole entry): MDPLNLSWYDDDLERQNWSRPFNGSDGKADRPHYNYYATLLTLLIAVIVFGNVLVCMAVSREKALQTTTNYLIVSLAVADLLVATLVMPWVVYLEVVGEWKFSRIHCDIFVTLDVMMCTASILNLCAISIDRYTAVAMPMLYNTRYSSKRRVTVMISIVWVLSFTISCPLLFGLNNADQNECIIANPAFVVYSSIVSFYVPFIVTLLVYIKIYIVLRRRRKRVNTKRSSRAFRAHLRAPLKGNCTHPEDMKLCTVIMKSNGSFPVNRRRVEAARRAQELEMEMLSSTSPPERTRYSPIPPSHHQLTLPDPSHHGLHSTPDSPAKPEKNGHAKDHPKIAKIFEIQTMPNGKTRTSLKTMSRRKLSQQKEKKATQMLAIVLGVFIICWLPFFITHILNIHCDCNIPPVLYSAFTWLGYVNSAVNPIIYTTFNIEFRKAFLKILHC

## COc1cc2c(cc1OC)[C@H]1C[C@H](O)[C@@H](CC(C)C)CN1CC2 (single isomer, unassigned) [Isomer B, 3,11b-cis-dihydrotetrabenazine]
[1]
  affinity for VMAT1 (in words): low affinity for VMAT-1
  IC50: > 10 µM
[2]
  Percentage Inhibition of Specific Binding, D1 Receptor: 1%
[3]
  Percentage Inhibition of Specific Binding, D2L Receptor: 16%
[4]
  Percentage Inhibition of Specific Binding, I2 Receptor: 8%
[5]
  Percentage Inhibition of Specific Binding, σ1 Receptor: 82%
[6]
  inhibitory activity against monoamine oxidase isoform A (in words): no inhibitory activity
  inhibition at 10 µM: 3%
[7]
  mode of action on serotonin uptake (in words): antagonist
  inhibition at 10 µM: 56%
[8]
  recovery at 1 h, 50 μM: 90.1 ± 6.5%

## COc1cc2c(cc1OC)[C@H]1C[C@@H](O)[C@@H](CC(C)C)CN1CC2 (single isomer, unassigned) [Isomer C, 3,11b-cis-dihydrotetrabenazine]
[1]
  affinity for VMAT1 (in words): low affinity for VMAT-1
  IC50: > 10 µM
[2]
  Percentage Inhibition of Specific Binding, D1 Receptor: 6%
[3]
  Percentage Inhibition of Specific Binding, D2L Receptor: −14%
[4]
  Percentage Inhibition of Specific Binding, I2 Receptor: 0%
[5]
  Percentage Inhibition of Specific Binding, σ1 Receptor: 59%
[6]
  inhibitory activity against monoamine oxidase isoform A (in words): no inhibitory activity
  inhibition at 10 µM: 3%
[7]
  mode of action on serotonin uptake (in words): antagonist
  inhibition at 10 µM: 86%
[8]
  Papp A→B at 1 h, 50 μM: 21.1 ×10⁻⁶ cm/s
  recovery at 1 h, 50 μM: 102 ± 12.4%
